Data reported in patent US20190030053A1, “COMPOSITION FOR INCREASING EXPRESSION OF PGC-1alpha” (BENEBIOSIS CO., LTD., priority 2016, published 2019).

Experiments:
[1] = system: 6-OHDA induced SD rat Parkinson's disease models; experiment: Behavioral ability tests (corner turn and descent, vertical grating device) in Parkinson's disease models; assay type: in vivo; conditions: 6-OHDA SD rats, oral 0.1 mg/kg/day
Description: In order to investigate the changes in gene expression and behavior improvement by the treatment with SL (3′-SL & 6′-SL) compositions in Parkinson's brain disease models, 13-week-old normal SD rats and Parkinson's brain disease models were purchased from Central Lab Animal (Korea). Water was freely accessible, and a commercially available pellet feed (Dooyeul Biotech, Korea) was given for one week. At 14 weeks of age, the SD rats were divided into four groups (composed of 8 animals per group): Eight 14-week-old male SD rats (normal rats; initial body weight, average 355.6±32.3 g) treated with a normal diet were used for a control group. The 6-OHDA induced SD rat Parkinson's disease models, which were administered with 6-hydroxydopamine (6-OHDA) at 8 weeks of age and supplied at 13 weeks of age, were randomly divided into three different dietary treatment groups below (8 animals per group), and these diets were maintained from 14 weeks of age for 10 weeks (total 32 animals): • Control group: Normal rats fed with a normal diet without SL administration (8 animals) • (Parkinson's disease model) group: Parkinson's disease models fed with a normal diet without SL administration (8 animals) • (Parkinson's disease model+3′-SL) group: Parkinson's disease models treated with 3′-sialyllactose (3′-SL, Sigma) (oral administration of 0.1 mg per kg of rat weight per day) in addition to the normal diet group (8 animals) • (Parkinson's disease model+6′-SL) group: Parkinson's disease models treated with 6′-sialyllactose (6′-SL, Sigma) (oral administration of 0.1 mg per kg of rat weight per day) in addition to the normal diet group (8 animals)
In FIG. 8, the vertical axis represents the corner turn time and the descent time as a result of carrying out behavioral ability tests (corner turn and descent) using a vertical grating device on a control group, (Parkinson's disease model) group, (Parkinson's disease model+3′-SL) group, and (Parkinson's disease model+6′-SL) group. The vertical grating device was in the form of an opened box of 5 cm×55 cm×8 cm, and the frant face was formed of a wiring of 0.8 cm×0.8 cm and the other surfaces were formed of black plexiglass. The bottom was made 5 cm longer for safety. In the test, the […] were placed in an upward direction at a distance of 3 cm from the top of the device, and were allowed to acclimate to the device three times for two days before testing. The above procedure was repeated if the rat could not come down within 60 seconds. The corner turn time is the time it takes for a rat facing upwards to turn downwards, and the descent time is the time obtained by subtracting the corner turn time from the overall test time for which the rat turns at the corner and descends to the bottom.

ICH models = experiment: Modified limb placing test (MLPT) in intracerebral hemorrhage (ICH) models; assay type: in vivo, rat; conditions: first day and third day after ICH induction; intraperitoneal
Description: In order to investigate the changes in ischemic volume and modified limb placing test (MLPT) score by treatment with SL (3′-SL & 6′-SL) compositions in stroke models, 4-week-old mice were purchased from Central Lab Animal (Korea). Water was freely accessible, and a commercially available pellet feed (Dooyeul Biotech, Korea) was given for one week. Stroke models involving temporary and permanent middle cerebral artery (MCA) occlusion and intracerebral hemorrhage (ICH) were fabricated using 6-week-old male Sprague-Dawley rats (weight, average 185.3±15.8 g) and male BALB/c mice weight, average 24.6±3.8 g). […] The model was suspended at 10 cm above a table, and the stretch of the forelimbs toward the table was scored (0 points for normal stretch and 1 point for abnormal fexion). […] The evaluation results for three tasks were scored in the following manner: 0 points for normal performance, 1 point for performance with a delay (at least 2 seconds) or incomplete performance, and 2 points for no performance. […]

| Structure (SMILES) | corner turn time [1] | descent time [1] | MLPT test score vs control group (neurodegeneration inhibitory effects) (ICH models) |
| --- | --- | --- | --- |
| CC(=O)N[C@H]1[C@H]([C@H](O)[C@H](O)CO)O[C@@](O[C@H]2[C@@H](O)[C@@H](CO)O[C@@H](O[C@H]3[C@H](O)[C@@H](O)C(O)O[C@@H]3CO)[C@@H]2O)(C(=O)O)C[C@@H]1O (stereo partly drawn) [3′-SL, α-NeuNAc-(2→3)-β-D-Gal-(1→4)-D-Glc] | relatively low compared with 6′-SL | relatively low compared with 6′-SL | relatively low compared with 6′-SL |
| CC(=O)N[C@H]1[C@H]([C@H](O)[C@H](O)CO)O[C@@](OC[C@H]2O[C@@H](O[C@H]3[C@H](O)[C@@H](O)[C@H](O)O[C@@H]3CO)[C@H](O)[C@@H](O)[C@H]2O)(C(=O)O)C[C@@H]1O [6′-SL, α-NeuNAc-(2→6)-β-D-Gal-(1→4)-D-Glc] | almost similar to those in the control group | almost similar to those in the control group | lower |
